Results from ChEMBL document CHEMBL5321207, “Design, synthesis and biological characterization of novel activators of the TrkB neurotrophin receptor” (Eur J Med Chem, 2023).
Activity calls are given as the source filed them. The calls are words filed in the database; no cut-off is given here.

Legend:
Hepatocyte = assay: Hepatotoxicity against mouse hepatocytes at 1 uM incubated for 24 hrs by HCS analysis; type: functional, cell-based
NIH3T3 = assay: Cytotoxicity against serum-starved mouse NIH3T3 cells transfected with TrkB assessed as cell death at 1 uM measured after 24 hrs by CellTox green dye/Hoechst staining based microscopy; type: toxicity; conditions: nih3t3, 24 h
Cortical neurone [1] = assay: Neurotoxicity against Sprague-Dawley rat primary cortical neurons at 100 uM incubated for 24 hrs by HCS analysis; type: functional, cell-based
SH-SY5Y [2] = assay: Induction of neurite outgrowth in retinoid acid-treated human SH-SY5Y cells at 10 nM incubated for 2 days by fluorescence microscopy relative to retinoid acid; type: functional; conditions: time 2 day
[3] = Chromatographic hydrophobicity index, log D of compound at pH 7.4 by HPLC analysis; type: physicochemical; conditions: buffer
SH-SY5Y [4] = assay: Induction of neurite outgrowth in retinoid acid-treated human SH-SY5Y cells at 100 nM incubated for 2 days by fluorescence microscopy relative to retinoid acid; type: functional; conditions: time 2 day
SH-SY5Y [5] = assay: Induction of neurite outgrowth in retinoid acid-treated human SH-SY5Y cells at 1000 nM incubated for 2 days by fluorescence microscopy relative to retinoid acid; type: functional; conditions: time 2 day
Cortical neurone [6] = assay: Neurotoxicity against Sprague-Dawley rat primary cortical neurons at 10 uM incubated for 24 hrs by HCS analysis; type: functional, cell-based
[7] = molecular target: BDNF/NT-3 growth factors receptor (Mus musculus) (UniProt P15209); assay: Induction of TrkB phosphorylation transfected in mouse NIH3T3 cells at 1 uM incubated for 20 mins followed by serum deprivation for 6 hrs by Western blot analysis; type: cell-based; conditions: filed as activator, time 6.33 hrs
Sequence of BDNF/NT-3 growth factors receptor (Mus musculus) (P15209 whole entry): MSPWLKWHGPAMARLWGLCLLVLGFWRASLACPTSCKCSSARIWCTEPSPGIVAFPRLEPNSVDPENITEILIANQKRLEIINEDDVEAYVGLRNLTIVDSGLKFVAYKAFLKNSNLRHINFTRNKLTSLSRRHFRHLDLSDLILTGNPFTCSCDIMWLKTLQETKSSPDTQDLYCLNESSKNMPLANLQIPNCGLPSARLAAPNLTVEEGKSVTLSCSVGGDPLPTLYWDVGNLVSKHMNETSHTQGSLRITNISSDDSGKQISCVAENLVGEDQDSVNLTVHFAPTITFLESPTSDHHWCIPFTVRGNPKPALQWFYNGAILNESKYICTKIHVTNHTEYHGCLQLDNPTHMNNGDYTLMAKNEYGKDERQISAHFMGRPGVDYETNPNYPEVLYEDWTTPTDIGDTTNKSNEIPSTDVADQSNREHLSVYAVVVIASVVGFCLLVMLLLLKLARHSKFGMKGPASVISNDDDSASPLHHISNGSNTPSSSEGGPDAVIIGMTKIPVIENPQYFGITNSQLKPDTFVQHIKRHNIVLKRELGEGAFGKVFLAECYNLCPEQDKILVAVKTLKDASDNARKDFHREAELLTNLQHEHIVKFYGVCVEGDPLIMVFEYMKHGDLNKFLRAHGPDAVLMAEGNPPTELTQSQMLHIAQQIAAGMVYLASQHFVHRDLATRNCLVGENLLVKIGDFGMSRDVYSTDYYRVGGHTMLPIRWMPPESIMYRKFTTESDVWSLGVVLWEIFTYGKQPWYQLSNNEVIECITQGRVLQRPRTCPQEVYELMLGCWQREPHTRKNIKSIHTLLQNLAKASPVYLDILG

Cortical neurone [8] = assay: Neurotoxicity against Sprague-Dawley rat primary cortical neurons at 1 uM incubated for 24 hrs by HCS analysis; type: functional, cell-based
[9] = Chromatographic hydrophobicity index of compound at pH 7.4 by HPLC analysis; type: physicochemical
[10] = system: Primary spinal motor neuron; assay: (§1) Neuroprotective activity against glutamate-treated Wistar rat primary spinal motor neurons assessed as neuronal survival pretreated for 1 hr followed by glutamate treatment for 20 mins and subsequent washout of compound and glutamate and re-treatment of compound for 48 hrs by imaging analysis; type: functional, cell-based; conditions: dose 0.5-1000 nM, time 49.33 hrs
[11] = molecular target: BDNF/NT-3 growth factors receptor (Mus musculus) (UniProt P15209); assay: Induction of TrkB phosphorylation in mouse primary cortical astrocytes assessed as Akt phosphorylation at 1 uM incubated for 20 mins followed by serum deprivation for 6 hrs by Western blot analysis; type: cell-based; conditions: Cortex, filed as activator, time 6.33 hrs
[12] = system: Primary spinal motor neuron; assay: as §1, with “increase in neurite network” for “neuronal survival”; type: functional, cell-based; conditions: dose 0.5-1000 nM, time 49.33 hrs
[13] = molecular target: BDNF/NT-3 growth factors receptor (Mus musculus) (UniProt P15209); assay: Induction of TrkB phosphorylation in mouse primary cortical astrocytes at 1 uM incubated for 20 mins followed by serum deprivation for 6 hrs by Western blot analysis; type: cell-based; conditions: Cortex, filed as activator, time 6.33 hrs
[14] = system: Primary spinal motor neuron; assay: as §1, with “decrease in TDP43 accumulation” for “neuronal survival”; type: functional, cell-based; conditions: dose 0.5-1000 nM, time 49.33 hrs

SMILES | Activity (Hepatocyte) | Activity (NIH3T3) | Activity (Cortical neurone [1]) | Activity (SH-SY5Y [2]) | chromatographic logD [3] | Activity (SH-SY5Y [4]) | Activity (SH-SY5Y [5]) | Activity (Cortical neurone [6]) | Activity [7] | Activity (Cortical neurone [8]) | CHI [9] | Activity [10] | Activity [11] | Activity [12] | Activity [13] | Activity [14]
CCCN1CCC(CNC(=O)c2cc(C(=O)NCCO)cc(C(=O)NCCO)c2)CC1 | inactive | Non-Toxic | inactive | 97.67% | -0.34 | 102.23% | 104.04% | inactive | Active | inactive | 17.6 |  |  |  |  | 
O=C(NCCO)c1cc(C(=O)NCCO)cc(C(=O)NCCCN2CCOCC2)c1 |  |  |  | 121.11% | -0.28 | 127.21% | 122.77% |  |  | inactive | 18.7 |  |  |  |  | 
O=C(NCCO)c1cc(C(=O)NCCO)cc(C(=O)NCC2CCN(CC3CCCCC3)CC2)c1 |  | Non-Toxic |  | 183.59% | 0.48 | 181.13% | 113.54% |  | Active |  | 33.4 | Dose-Dependent Effect | Active | Dose-Dependent Effect | Active | Dose-Dependent Effect
O=C(NCCO)c1cc(C(=O)NCCO)cc(C(=O)NCCO)c1 |  | Non-Toxic | inactive | 120.18% | -0.53 | 124.7% | 113.86% | inactive | Active | inactive | 13.8 |  | Active |  | Active | 
CC[C@H](C)[C@H](N)C(=O)NCCNC(=O)c1cc(C(=O)NCCO)cc(C(=O)NCCO)c1.Cl |  |  |  | 139.04% | -0.24 | 158.93% | 143.82% | inactive |  | inactive | 19.5 |  |  |  |  | 
O=C(NCCO)c1cc(C(=O)NCCO)cc(C(=O)NCCN2CCOCC2)c1 | inactive |  |  | 90.19% | -0.31 | 107.68% | 114.91% |  |  | inactive | 18.1 |  | Active |  | Active | 
